Where two headings read alike, the source gives them in different places.
What was measured:
A. fumigatus = assay: Broth microdilution (NCCLS M38-A) checkerboard assay, A. fumigatus; type: cell-based, Aspergillus fumigatus; details: for MIC: Aspergillus fumigatus, agent alone, read-out: MIC-2 of each agent, Alone
Method: (§1) Stock solutions of amphotericin B (AMB, Sigma), caspofungin (Caspo), voriconazole (VOR) and itraconazole (ITZ) were prepared according to the National Committee for Clinical Laboratory Standards (M38-A) in RPMI 1640 with glutamine broth medium, buffered to pH 7.0 with […] morpholinopropanesulphonic acid (MOPS). AMB stock solutions were prepared as a 100× series in 100% dimethyl sulfoxide (DMSO) and diluted in medium to a concentration range of 0.03125 to 16 μg/ml. Caspofungin, voriconazole and itraconazole were tested at a concentration range of 0.03125 to 1024 μg/ml, and Mycograb® (NeuTec Pharma plc) at a concentration range of 0.25 to 1024 μg/ml.
(§2) Clinical isolates of Aspergillus fumigatus (2), A. flavus (1), A. terreus (1) and A. niger (1) were obtained from the Department on Microbiology, Manchester Royal Infirmary, Manchester, UK.
(§3) An inoculum suspension was prepared in buffered RPMI with glutamine medium by probing colonies from a 7 day old Sabouraud plate. The suspension was adjusted to 0.09-0.11 (80% to 82% transmittance) for Aspergillus species, 0.15-0.17 (68% to 70% transmittance). The inoculum was diluted a further 1:2 when added to the antifungal agents in the assay (final inoculum (0.4×10^4 to 0.5×10^4). For AMB and Mycograb®, either alone or in combination, the endpoint was determined as the concentration to produce no growth (MIC-0). Microtitre plates were incubated at 37° C. without agitation for 48 hours for Aspergillus species. For caspofungin, voriconazole and itraconazole, either alone or in combination with Mycograb® antibody, the MIC endpoint was determined as the concentration resulting in a prominent decrease in turbidity (≧50% growth inhibition, MIC-2) compared to the growth control (Keele et al. 2001; Espinel-Ingroff 2003). The final inhibitory concentration (FIC) was calculated for each drug by dividing the MIC in the presence of the second drug by the MIC in its absence. For each combination, two fractions were produced which were summated to produce the fractional final inhibitory concentration. Synergy was defined by value of ≦0.5, indifference was defined by a value of >0.5 to <4.0, and antagonism was defined by a value of ≧4.0 (Matthews et al., 2003).

A. fumigatus CI2 = assay: Broth microdilution (NCCLS M38-A) checkerboard assay, A. fumigatus CI2; type: cell-based, Aspergillus fumigatus; details: for MIC: Aspergillus fumigatus, agent alone, read-out: MIC-2 of each agent, Alone
Method: as §1, §2, §3

A. niger = assay: Broth microdilution (NCCLS M38-A) checkerboard assay, A. niger; type: cell-based; details: for MIC: Aspergillus niger, agent alone, read-out: MIC-2 of each agent, Alone
Method: as §1, §2, §3

A. flavus = assay: Broth microdilution (NCCLS M38-A) checkerboard assay, A. flavus; type: cell-based; details: for MIC: Aspergillus flavus, agent alone, read-out: MIC-2 of each agent, Alone
Method: as §1, §2, §3

A. terreus = assay: Broth microdilution (NCCLS M38-A) checkerboard assay, A. terreus; type: cell-based; details: for MIC: Aspergillus terreus, agent alone, read-out: MIC-2 of each agent, Alone; for FIC: MIC in combination divided by MIC alone
Method: as §1, §2, §3

Aspergillus species = assay: Antifungal activity with Mycograb antibody, summary over the Aspergillus species examined; type: cell-based; details: summary of Tables 1-4; agent combined with Mycograb antibody
Method: as §3

Candida strains = details: prior finding, WO 01/76627; cited from earlier work
[1] = Table 2, ≧50% growth inhibition endpoint
[2] = caspofungin and Mycograb combination
[3] = caspofungin and Mycograb in combination
[4] = Table 4, ≧50% growth inhibition endpoint
[5] = voriconazole and Mycograb combination
[6] = voriconazole and Mycograb in combination

**Q.** With `CC[C@H](C)C[C@H](C)CCCCCCCCC(=O)N[C@H]1C[C@@H](O)[C@@H](NCCN)NC(=O)[C@@H]2[C@@H](O)CCN2C(=O)[C@H]([C@H](O)CCN)NC(=O)[C@H]([C@H](O)[C@@H](O)c2ccc(O)cc2)NC(=O)[C@@H]2C[C@@H](O)CN2C(=O)[C@H]([C@@H](C)O)NC1=O` [Caspo, caspofungin] as the molecule, how does the MIC (A. fumigatus; [1]) read?
**A.** The MIC was 0.125 µg/mL.

**Q.** And the FICI (A. fumigatus; [2])?
**A.** The FICI was 0.562.

**Q.** And the Outcome (A. fumigatus; [2])?
**A.** The Outcome was “Indifferent (indifference was defined by a value of >0.5 to <4.0)”.

**Q.** And the “MIC-2 of each agent, Combination” value (A. fumigatus; [3])?
**A.** Its value is 0.0625 µg/mL.

**Q.** What about the MIC (A. fumigatus CI2; [1]) of the same molecule?
**A.** The MIC was 0.125 µg/mL.

**Q.** And the FICI (A. fumigatus CI2; [2])?
**A.** The FICI was 0.562.

**Q.** What about the Outcome (A. fumigatus CI2; [2]) of the same molecule?
**A.** Its Outcome is “Indifferent (indifference was defined by a value of >0.5 to <4.0)”.

**Q.** And the “MIC-2 of each agent, Combination” value (A. fumigatus CI2; [3])?
**A.** Its value is 0.0625 µg/mL.

**Q.** What about the MIC (A. niger; [1]) of the same molecule?
**A.** The MIC was 1 µg/mL.

**Q.** And the FICI (A. niger; [2])?
**A.** The FICI was 0.125.

**Q.** And the Outcome (A. niger; [2])?
**A.** Its Outcome is “Synergy (Synergy was defined by value of ≦0.5)”.

**Q.** And the “MIC-2 of each agent, Combination” value (A. niger; [3])?
**A.** Its value is 0.125 µg/mL.

**Q.** And the MIC (A. flavus; [1])?
**A.** The MIC was 1 µg/mL.

**Q.** And the FICI (A. flavus; [2])?
**A.** The FICI was 0.500.

**Q.** And the Outcome (A. flavus; [2])?
**A.** The Outcome was “Indifferent (indifference was defined by a value of >0.5 to <4.0)”.

**Q.** And the “MIC-2 of each agent, Combination” value (A. flavus; [3])?
**A.** Its value is 0.5 µg/mL.

**Q.** And the MIC (A. terreus; [1])?
**A.** Its MIC is 0.312 µg/mL.

**Q.** What about the FICI (A. terreus; [2]) of the same molecule?
**A.** Its FICI is 0.312.

**Q.** And the Outcome (A. terreus; [2])?
**A.** Its Outcome is “Synergy (Synergy was defined by value of ≦0.5)”.

**Q.** What about the “MIC-2 of each agent, Combination” value (A. terreus; [3]) of the same molecule?
**A.** The value was 0.078 µg/mL.

**Q.** And the FIC (A. terreus; caspofungin and Mycograb)?
**A.** The FIC was 0.25 µg/mL.

**Q.** What about the “Antifungal activity / surprising effect when used in combination with Mycograb antibody” value (from here on “Antifungal activity / surprising effect”) (Aspergillus species) of the same molecule?
**A.** The value was “not observed”.

**Q.** Which MIC (A. fumigatus; [4]) does the source give for `C[C@@H](c1ncncc1F)[C@](O)(Cn1cncn1)c1ccc(F)cc1F` [VOR, voriconazole] here?
**A.** Its MIC is 0.0625 µg/mL.

**Q.** What about the FICI (A. fumigatus; [5]) of the same molecule?
**A.** Its FICI is 0.5.

**Q.** What about the Outcome (A. fumigatus; [5]) of the same molecule?
**A.** The Outcome was “Synergy (Synergy was defined by value of ≦0.5)”.

**Q.** And the “MIC-2 of each agent, Combination” value (A. fumigatus; [6])?
**A.** The value was 0.0312 µg/mL.

**Q.** What about the MIC (A. fumigatus CI2; [4]) of the same molecule?
**A.** The MIC was 0.25 µg/mL.

**Q.** What about the FICI (A. fumigatus CI2; [5]) of the same molecule?
**A.** Its FICI is 0.5.

**Q.** What about the Outcome (A. fumigatus CI2; [5]) of the same molecule?
**A.** Its Outcome is “Synergy (Synergy was defined by value of ≦0.5)”.

**Q.** And the “MIC-2 of each agent, Combination” value (A. fumigatus CI2; [6])?
**A.** Its value is 0.125 µg/mL.

**Q.** And the MIC (A. niger; [4])?
**A.** The MIC was 0.125 µg/mL.

**Q.** What about the FICI (A. niger; [5]) of the same molecule?
**A.** The FICI was 2.

**Q.** What about the Outcome (A. niger; [5]) of the same molecule?
**A.** The Outcome was “Indifferent (indifference was defined by a value of >0.5 to <4.0)”.

**Q.** What about the “MIC-2 of each agent, Combination” value (A. niger; [6]) of the same molecule?
**A.** Its value is 0.125 µg/mL.

**Q.** And the MIC (A. flavus; [4])?
**A.** Its MIC is 0.25 µg/mL.

**Q.** What about the FICI (A. flavus; [5]) of the same molecule?
**A.** The FICI was 0.25.

**Q.** And the Outcome (A. flavus; [5])?
**A.** Its Outcome is “Synergy (Synergy was defined by value of ≦0.5)”.

**Q.** And the “MIC-2 of each agent, Combination” value (A. flavus; [6])?
**A.** The value was 0.0625 µg/mL.

**Q.** And the MIC (A. terreus; [4])?
**A.** Its MIC is 0.25 µg/mL.

**Q.** And the FICI (A. terreus; [5])?
**A.** The FICI was 0.5.

**Q.** What about the Outcome (A. terreus; [5]) of the same molecule?
**A.** The Outcome was “Synergy (Synergy was defined by value of ≦0.5)”.

**Q.** What about the “MIC-2 of each agent, Combination” value (A. terreus; [6]) of the same molecule?
**A.** The value was 0.125 µg/mL.

**Q.** What about the FIC (A. terreus; voriconazole and Mycograb) of the same molecule?
**A.** Its FIC is 0.5 µg/mL.

**Q.** What about the “Antifungal activity / surprising effect” value (Aspergillus species) of the same molecule?
**A.** The value was “surprisingly high level of antifungal activity against all the species examined except for A. niger”.

**Q.** For `OC(Cn1cncn1)(Cn1cncn1)c1ccc(F)cc1F` [fluconazole], which “Antifungal activity / surprising effect” value (Aspergillus species) is on record?
**A.** Its value is “not observed”.

**Q.** And the “Synergy in combination with Mycograb antibody against Candida strains” value (Candida strains)?
**A.** Its value is “little synergy”.

Reference: patent US20080095778A1, “Treatment Of Fungal Infections” (priority 2004, published 2008)
